The values below come from ChEMBL document CHEMBL1201862, “PubChem BioAssay data set” (2004).

The GI50 is the concentration that inhibits growth by half.

Test systems include M14; IGROV-1; NCI-H23; UACC-257; CAKI-1; HOP-62; 786-0; HL-60; OVCAR-4; HCT-15; COLO 205; SW-620; UO-31; SR; HT-29; NCI-H522; RPMI-8226; RXF 393.
What all share (assay): DTP human tumour cell line panel, 48 h

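Tested at 5 concentrations; 48 h exposure; 96-well plates; endpoints linearly interpolated, else capped at highest concentration. At the GI50, growth is halved.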 Activity calls are given as the source filed them. Rule as the data show it: active = GI50 up to about 1.1 µM and inactive = higher.

For `C=CC(=O)NCNC(=O)C=C`, the GI50 in the assay on M14, in the assay with IGROV-1, with NCI-H23, in the assay on UACC-257, in the assay with CAKI-1 and in the assay with HOP-62 was > 100 µM (inactive) in each case. Moreover, the GI50 in the assay with 786-0 is > 100 µM (inactive); with HL-60 it was > 100 µM (inactive); in the assay with OVCAR-4, > 100 µM (inactive); with HCT-15, more than 100 µM; in the assay on COLO 205 it was > 100 µM (inactive); in the assay on SW-620, > 100 µM (inactive). Further, the GI50 in the assay with UO-31, in the assay on SR, in the assay on HT-29, in the assay on NCI-H522 and in the assay on RPMI-8226 was > 100 µM (inactive) each time.

Consider `CSc1cnc2ccccc2c1Sc1cn(C)c2ccccc2c1=O`, for which the GI50 was > 100 µM (inactive) in the assay with M14; 18.7 µM (inactive) in the assay with IGROV-1; 19.5 µM (inactive) in the assay on NCI-H23; 59.4 µM (inactive) with UACC-257; 18 µM (inactive) in the assay with HOP-62; 30.3 µM (inactive) in the assay on 786-0. In addition, the GI50 is 16 µM (inactive) in the assay on HL-60; 34.8 µM (inactive) in the assay on OVCAR-4; 35.8 µM with HCT-15; 38.4 µM (inactive) in the assay with RXF 393; 17 µM (inactive) in the assay on COLO 205; 70.6 µM (inactive) in the assay on SW-620. Besides, the GI50 in the assay on UO-31 is 25.5 µM (inactive); in the assay on SR, 12.6 µM (inactive); in the assay with HT-29, 58.5 µM (inactive); in the assay on RPMI-8226, 17.9 µM (inactive).

In the case of `Cn1c2c(c3ccccc31)CCN(CCN1CCN(c3ccccc3)CC1)C2=O`, the GI50 in the assay with M14 was > 100 µM (inactive); in the assay with IGROV-1 it was > 100 µM (inactive); in the assay with NCI-H23 it was 33.5 µM (inactive); with CAKI-1, > 100 µM (inactive); in the assay on 786-0, 68.2 µM (inactive); in the assay with HL-60, > 100 µM (inactive). For the same compound, the GI50 was more than 100 µM in the assay on HCT-15; 26.7 µM (inactive) in the assay with RXF 393; > 100 µM (inactive) with COLO 205; > 100 µM (inactive) in the assay on SW-620; > 100 µM (inactive) in the assay with UO-31; > 100 µM (inactive) in the assay on HT-29. In addition, the GI50 in the assay on NCI-H522 is 26.3 µM (inactive); with RPMI-8226, > 100 µM (inactive).

`C=C1CC(C/C=C(\C)CC2CC(=C)C(=O)O2)OC1=O` (stereo not drawn): the GI50 with M14, with IGROV-1, in the assay with NCI-H23, in the assay with UACC-257, in the assay with CAKI-1 and in the assay with HOP-62 was > 100 µM (inactive) throughout. In addition, the GI50 in the assay on 786-0 was > 100 µM (inactive); in the assay on HL-60 it was > 100 µM (inactive); with OVCAR-4, > 100 µM (inactive); in the assay on HCT-15, more than 100 µM; with RXF 393 it was > 100 µM (inactive); in the assay on COLO 205 it was > 100 µM (inactive). For the same compound, the GI50 with SW-620, with UO-31, with SR and in the assay on HT-29 was > 100 µM (inactive) each time.

Consider `c1ccc(SC2CCSc3ccccc3C2Sc2ccccc2)cc1` (stereo not drawn), for which the GI50 was > 100 µM (inactive) with M14; > 10 µM (inactive) in the assay with IGROV-1; 27.9 µM (inactive) with UACC-257; 22.8 µM (inactive) in the assay on CAKI-1; > 100 µM (inactive) in the assay on HOP-62; > 100 µM (inactive) with 786-0. In addition, the GI50 was 4.73 µM (inactive) with HL-60; > 100 µM (inactive) in the assay with OVCAR-4; more than 100 µM in the assay on HCT-15; > 10 µM (inactive) in the assay with COLO 205; > 100 µM (inactive) in the assay on SW-620; 6.9 µM (inactive) with UO-31. The GI50 in the assay with HT-29 is 69.2 µM (inactive); with NCI-H522 it was > 100 µM (inactive); with RPMI-8226 it was 96.4 µM (inactive).

For `CC(C)(C)C[P+](C)(C)c1ccccc1`, the GI50 in the assay on M14, with IGROV-1, in the assay with NCI-H23, with UACC-257, with CAKI-1 and with HOP-62 was > 100 µM (inactive) in each case. Also, the GI50 in the assay with 786-0 was > 100 µM (inactive); with HL-60 it was 67.1 µM (inactive); with OVCAR-4, > 100 µM (inactive); in the assay with HCT-15 it was more than 100 µM; with RXF 393, > 100 µM (inactive); in the assay with COLO 205 it was > 100 µM (inactive). Moreover, the GI50 with SW-620, with UO-31, in the assay on SR, in the assay with HT-29 and in the assay with RPMI-8226 was > 100 µM (inactive) each time.

As to `NS(=O)(=O)c1ccc(NC(=O)CC(=O)Nc2ccc(S(N)(=O)=O)cc2)cc1`, the GI50 with M14, in the assay with IGROV-1, in the assay with NCI-H23, in the assay on UACC-257, in the assay with CAKI-1 and with HOP-62 was > 100 µM (inactive) throughout. Moreover, the GI50 in the assay with 786-0 is > 100 µM (inactive); with HL-60, > 100 µM (inactive); in the assay on OVCAR-4, > 100 µM (inactive); in the assay with HCT-15 it was more than 100 µM; in the assay with COLO 205, > 100 µM (inactive); in the assay on SW-620, > 100 µM (inactive). Also, the GI50 in the assay with UO-31, with SR, with HT-29, in the assay on NCI-H522 and in the assay on RPMI-8226 was > 100 µM (inactive) in each case.

`CCOC(=O)C1=C(C(=O)OCC)C2(c3ccccc3)N(O1)c1ccccc1C2(C)C` (stereo not drawn): the GI50 in the assay with M14 was 38.5 µM (inactive); with IGROV-1 it was 41.8 µM (inactive); in the assay on NCI-H23 it was 30 µM (inactive); with UACC-257 it was 39.2 µM (inactive); in the assay on CAKI-1, 26.7 µM (inactive); with HOP-62 it was 37.6 µM (inactive). Besides, the GI50 in the assay with 786-0 was 75.7 µM (inactive); in the assay with HL-60 it was 22.7 µM (inactive); in the assay with OVCAR-4, 18.7 µM (inactive); in the assay on RXF 393 it was 46 µM (inactive); in the assay on COLO 205 it was 51.5 µM (inactive); in the assay on SW-620 it was 94.8 µM (inactive). In addition, the GI50 was 20.6 µM (inactive) in the assay with UO-31, 69.3 µM (inactive) in the assay with HT-29, 22.6 µM (inactive) in the assay on NCI-H522 and 20.7 µM (inactive) with RPMI-8226.

Take `O=C1C2c3[nH]c4ccccc4c3C3CCC(c4ccccc4)CC3C2C(=O)N1c1ccccc1` (stereo not drawn): the GI50 in the assay on M14 is > 100 µM (inactive); in the assay with IGROV-1 it was > 100 µM (inactive); with NCI-H23 it was > 100 µM (inactive); with 786-0 it was > 100 µM (inactive); in the assay on HL-60, 24.3 µM (inactive); in the assay with OVCAR-4, 58.5 µM (inactive). For the same compound, the GI50 is more than 100 µM in the assay with HCT-15; > 100 µM (inactive) in the assay on RXF 393; > 100 µM (inactive) in the assay on COLO 205; > 100 µM (inactive) in the assay with SW-620; > 100 µM (inactive) in the assay on UO-31; 92.5 µM (inactive) in the assay with SR. Besides, the GI50 in the assay with HT-29 and in the assay with RPMI-8226 was > 100 µM (inactive) throughout.

For `COc1cc(CNc2nc3c(N)cc(C(F)(F)F)cc3nc2-c2ccccc2)cc(OC)c1OC`, the GI50 is 47.1 µM (inactive) with M14; > 10 µM (inactive) in the assay on IGROV-1; 19 µM (inactive) in the assay with NCI-H23; 63 µM (inactive) in the assay with UACC-257; > 10 µM (inactive) in the assay with CAKI-1; 39.5 µM (inactive) in the assay with HOP-62. The GI50 with 786-0 was 88.3 µM (inactive); in the assay with HL-60 it was > 10 µM (inactive); in the assay on OVCAR-4 it was 8.95 µM (inactive); with HCT-15, 14.9 µM; in the assay on RXF 393, 8.47 µM (inactive); with COLO 205 it was 38.5 µM (inactive). Further, the GI50 in the assay on SW-620 was 85.1 µM (inactive); in the assay with UO-31, 16.8 µM (inactive); with SR, > 10 µM (inactive); in the assay on HT-29, 13.4 µM (inactive); in the assay with NCI-H522, 11.6 µM (inactive); in the assay on RPMI-8226, 47.3 µM (inactive).

For `O=C(CCc1nnc(S)[nH]1)Nc1ccc(Cl)c(Cl)c1`, the GI50 was 27.4 µM (inactive) with M14; 26.5 µM (inactive) in the assay on IGROV-1; 53.3 µM (inactive) in the assay with NCI-H23; 34.8 µM (inactive) in the assay with UACC-257; > 100 µM (inactive) in the assay on CAKI-1; 20 µM (inactive) with HOP-62. In addition, the GI50 is > 100 µM (inactive) with 786-0; 82.4 µM (inactive) with HL-60; 58.2 µM (inactive) with OVCAR-4; 6.25 µM in the assay on HCT-15; > 100 µM (inactive) in the assay on COLO 205; 41.3 µM (inactive) with SW-620. In addition, the GI50 with UO-31 was 45.6 µM (inactive); in the assay with SR it was 51.2 µM (inactive); in the assay on HT-29 it was > 100 µM (inactive); in the assay on NCI-H522, 23.4 µM (inactive); with RPMI-8226, > 100 µM (inactive).

Regarding `O=C1NC(=O)C(C(=O)C(=O)Nc2ccc(Br)cc2)C(=O)N1`, the GI50 in the assay with M14, in the assay on IGROV-1, in the assay on NCI-H23, in the assay with UACC-257, in the assay with 786-0 and in the assay on HL-60 was > 100 µM (inactive) each time. The GI50 is > 100 µM (inactive) with OVCAR-4; more than 100 µM in the assay on HCT-15; 5.04 µM (inactive) in the assay with RXF 393; > 100 µM (inactive) with COLO 205; > 100 µM (inactive) in the assay with SW-620; > 100 µM (inactive) with UO-31. The GI50 in the assay on SR, in the assay with HT-29, with NCI-H522 and in the assay with RPMI-8226 was > 100 µM (inactive) throughout.
